Values joined by “and” are separate entries in the source; they are usually repeats but may differ in a detail not shown here. Equal entries are not always repeated. Where two headings read alike, the source gives them in different places.

For data set [1] the following is noted: lung; cited from earlier work.
For data set [2], the system named is Herpes simplex virus type I (Seibert strain). Kind of data set: microbe, parasite or virus in culture. Format: cell-based. The settings on record: read-out: Plaque Formation Efficiency, Acv.
A short description of data set [3]: Acv concentration in guinea pig blood. Format: in vivo. The settings on record: for concentration at 1 h: serum, 200 mg, one hour. The method, then: An Acv suspension or a mixture of Acv and an extract solution of Cryt. f.# was orally or intragastrointestinally administered to a guinea pig. One hour from the administration, blood was taken from the heart, and an inactivated serum was prepared therefrom in the same manner as in Test Example 9.
(§1) To a 100 μl aliquot of the serum were added 100 μl of acetonitrile and 20 μl of a 100 mM sodium acetate solution, and the mixture was centrifuged (10000 rpm×10 mins.).
(§2) The sample solution was separated into Acv and adenine by reverse phase liquid chromatography in a usual manner. Each peak area was measured with an automatic integrator, and the Acv content was obtained from the previously prepared calibration curve.

Data set [4] can be described thus: Acv level in mouse blood (p.o.). In kind it is in vivo, DDY male mouse. Here is the method: as §1, §2
Further, 0.5 ml of an Acv preparation or 0.5 ml of a mixture of Acv and a varied concentration of Cryt. f.# extract solution was orally administered to a 6-week-old DDY male mouse, and the Acv concentration in blood was measured in the same manner as described above. […] Accordingly, the Cryt. f.# extract solution is believed to have antiherpesviral activity by itself.

In the case of `C=CC[C@@H]1/C=C(\C)C[C@H](C)C[C@H](OC)[C@H]2O[C@@](O)(C(=O)C(=O)N3CCCC[C@H]3C(=O)O[C@H](/C(C)=C/[C@@H]3CC[C@@H](O)[C@H](OC)C3)[C@H](C)[C@@H](O)CC1=O)[C@H](C)C[C@@H]2OC` [FK 506], the distribution result in data set [1] was “concentrated in the lung”.

On to `Nc1nc2c(ncn2COCCO)c(=O)[nH]1` [Acyclovir, acyclovir], for which the activity at 0.35 µg/mL in data set [2] came to 53.6%. In data set [3] (Table 12), the “effect of Cryt. f.# on Acv absorption” value is “it is not recognized that the Acv absorption was accelerated”. Besides, the concentration at 1 h in data set [3] (Acv (200 mg) + 1 mg/ml of Cryt. f.#, individual samples, read-out: Acv Concentration in Blood) was 76400 nM; in data set [3] (Acv (200 mg) + 1 mg/ml of Cryt. f.#, read-out: Acv Concentration in Blood, Mean ± σ), 92900 ± 31900 nM; in data set [3] (Acv (200 mg) + 5 mg/ml of Cryt. f.#, individual samples, read-out: Acv Concentration in Blood) it was 92900 nM; in data set [3] (Acv (200 mg) + 5 mg/ml of Cryt. f.#, read-out: Acv Concentration in Blood, Mean ± σ), 88300 ± 17400 nM; in data set [3] (Acv (200 mg) + 20 mg/ml of Cryt. f.#, read-out: Acv Concentration in Blood, Mean ± σ), 72200 ± 70400 nM; in data set [3] (Acv (200 mg), read-out: Acv Concentration in Blood, Mean ± σ), 88600 ± 85600 nM. Further, the concentration in data set [4] (Acv (10 mg/kg) p.o., read-out: Acv Blood Level, Mean ± σ) was 2280 ± 1490 nM; in data set [4] (Acv (100 mg/kg) + 2 mg/ml of Cryt. f.#, p.o., individual samples, listed as Acv, 100 mg/kg, read-out: Acv Blood Level), 1700 nM and 1400 nM and 1600 nM and 2500 nM and 4700 nM and 2900 nM and 2000 nM and 2400 nM and 9500 nM and 2300 nM; in data set [4] (Acv (100 mg/kg) + 2 mg/ml of Cryt. f.#, p.o., read-out: Acv Blood Level, Mean ± σ), 3100 ± 2430 nM; in data set [4] (Acv (100 mg/kg) + 10 mg/ml of Cryt. f.#, p.o., individual samples, listed as Acv, 100 mg/kg, read-out: Acv Blood Level), 2300 nM and 1100 nM and 3500 nM and 1600 nM and 1900 nM and 2600 nM and 1500 nM and 5200 nM; in data set [4] (Acv (100 mg/kg) + 10 mg/ml of Cryt. f.#, p.o., read-out: Acv Blood Level, Mean ± σ), 2460 ± 1330 nM; in data set [4] (Acv (100 mg/kg) + 20 mg/ml of Cryt. f.#, p.o., read-out: Acv Blood Level, Mean ± σ) it was 2590 ± 1530 nM. Also, the “effect of Cryt. f.# on Acv concentration in blood” value in data set [4] (mouse, Table 13) is “no increase in Acv concentration in blood was observed”.

The values above are taken from patent US5411733A (priority 1992, dated 1995).
